IC50 data for eight molecules are collected here from US11998537B2, “Substituted indole dimer compounds” (BRISTOL-MYERS SQUIBB COMPANY, priority 2018, dated 2024).

What all share (assay type): cell-based
The target of one assay is T1, human TLR7 (Homo sapiens, UniProt Q9NYK1).
T1 construct: host or cells: HEK-Blue cells (HEK293-derived reporter line)
T1 sequence (Q9NYK1 27-1049): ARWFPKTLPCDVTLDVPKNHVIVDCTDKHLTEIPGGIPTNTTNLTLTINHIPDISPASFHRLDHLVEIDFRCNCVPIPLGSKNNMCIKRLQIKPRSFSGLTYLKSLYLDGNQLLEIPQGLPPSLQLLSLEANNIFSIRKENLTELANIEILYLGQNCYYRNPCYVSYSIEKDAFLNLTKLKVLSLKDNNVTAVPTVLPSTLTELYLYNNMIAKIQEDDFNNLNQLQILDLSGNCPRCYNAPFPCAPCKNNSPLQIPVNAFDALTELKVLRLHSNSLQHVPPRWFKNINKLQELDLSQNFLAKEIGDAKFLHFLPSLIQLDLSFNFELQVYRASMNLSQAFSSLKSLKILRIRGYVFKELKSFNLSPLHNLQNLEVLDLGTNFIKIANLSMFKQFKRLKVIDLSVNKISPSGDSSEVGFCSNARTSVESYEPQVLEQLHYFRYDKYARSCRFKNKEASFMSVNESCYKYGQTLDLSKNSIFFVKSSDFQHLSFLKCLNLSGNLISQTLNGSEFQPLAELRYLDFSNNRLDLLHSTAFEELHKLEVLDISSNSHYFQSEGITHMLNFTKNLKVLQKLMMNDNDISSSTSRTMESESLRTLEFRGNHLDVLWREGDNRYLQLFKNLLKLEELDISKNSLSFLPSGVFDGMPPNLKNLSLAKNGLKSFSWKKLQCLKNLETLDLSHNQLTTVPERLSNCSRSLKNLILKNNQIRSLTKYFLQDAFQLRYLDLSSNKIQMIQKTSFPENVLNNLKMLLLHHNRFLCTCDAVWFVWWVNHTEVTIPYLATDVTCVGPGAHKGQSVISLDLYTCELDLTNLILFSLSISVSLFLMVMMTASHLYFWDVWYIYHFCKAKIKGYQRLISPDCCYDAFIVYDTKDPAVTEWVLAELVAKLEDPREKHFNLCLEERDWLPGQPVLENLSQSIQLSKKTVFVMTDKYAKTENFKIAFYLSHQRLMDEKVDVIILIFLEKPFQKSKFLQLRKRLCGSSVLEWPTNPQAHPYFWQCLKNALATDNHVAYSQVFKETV
As to the kind of experiment: TLR7 inhibition reporter assay (HEK-Blue SEAP). The note with it: HEK-Blue cells overexpressing human TLR7, gardiquimod 7.5 μM, 22 hour incubation. The method, then:
(§1) TLR7/8/9 Inhibition Reporter Assays
(§2) HEK-Blue™-cells (Invivogen) overexpressing human TLR7, TLR8 or TLR9 receptors were used for screening inhibitors of these receptors using an inducible SEAP (secreted embryonic alkaline phosphatase) reporter gene under the control of the IFN-β minimal promoter fused to five NF-κB and AP-1-binding sites. Briefly, cells are seeded into Greiner 384 well plates (15000 cells per well for TLR7, 20,000 for TLR8 and 25,000 for TLR9) and then treated with test compounds in DMSO to yield a final dose response concentration range of 0.05 nM-50 μM. After a 30 minute compound pre-treatment at room temperature, the cells are then stimulated with a TLR7 ligand (gardiquimod at a final concentration of 7.5 μM), TLR8 ligand (R848 at a final concentration of 15.9 μM) or TLR9 ligand (ODN2006 at a final concentration of 5 nM) to activate NF-κB and AP-1 which induce the production of SEAP. After a 22 hour incubation at 37° C., 5% CO2, SEAP levels are determined with the addition of HEK-Blue™ Detection reagent (Invivogen), a cell culture medium that allows for detection of SEAP, according to manufacturer's specifications. The percent inhibition is determined as the % reduction in the HEK-Blue signal present in wells treated with agonist plus DMSO alone compared to wells treated with a known inhibitor.
(Reporter assays use an easily measured gene product as a stand-in for the process of interest.)

The target of another assay is T2, human TLR8 (Homo sapiens, UniProt Q9NR97).
T2 construct: host or cells: HEK-Blue cells (HEK293-derived reporter line)
T2 sequence (Q9NR97 27-1041): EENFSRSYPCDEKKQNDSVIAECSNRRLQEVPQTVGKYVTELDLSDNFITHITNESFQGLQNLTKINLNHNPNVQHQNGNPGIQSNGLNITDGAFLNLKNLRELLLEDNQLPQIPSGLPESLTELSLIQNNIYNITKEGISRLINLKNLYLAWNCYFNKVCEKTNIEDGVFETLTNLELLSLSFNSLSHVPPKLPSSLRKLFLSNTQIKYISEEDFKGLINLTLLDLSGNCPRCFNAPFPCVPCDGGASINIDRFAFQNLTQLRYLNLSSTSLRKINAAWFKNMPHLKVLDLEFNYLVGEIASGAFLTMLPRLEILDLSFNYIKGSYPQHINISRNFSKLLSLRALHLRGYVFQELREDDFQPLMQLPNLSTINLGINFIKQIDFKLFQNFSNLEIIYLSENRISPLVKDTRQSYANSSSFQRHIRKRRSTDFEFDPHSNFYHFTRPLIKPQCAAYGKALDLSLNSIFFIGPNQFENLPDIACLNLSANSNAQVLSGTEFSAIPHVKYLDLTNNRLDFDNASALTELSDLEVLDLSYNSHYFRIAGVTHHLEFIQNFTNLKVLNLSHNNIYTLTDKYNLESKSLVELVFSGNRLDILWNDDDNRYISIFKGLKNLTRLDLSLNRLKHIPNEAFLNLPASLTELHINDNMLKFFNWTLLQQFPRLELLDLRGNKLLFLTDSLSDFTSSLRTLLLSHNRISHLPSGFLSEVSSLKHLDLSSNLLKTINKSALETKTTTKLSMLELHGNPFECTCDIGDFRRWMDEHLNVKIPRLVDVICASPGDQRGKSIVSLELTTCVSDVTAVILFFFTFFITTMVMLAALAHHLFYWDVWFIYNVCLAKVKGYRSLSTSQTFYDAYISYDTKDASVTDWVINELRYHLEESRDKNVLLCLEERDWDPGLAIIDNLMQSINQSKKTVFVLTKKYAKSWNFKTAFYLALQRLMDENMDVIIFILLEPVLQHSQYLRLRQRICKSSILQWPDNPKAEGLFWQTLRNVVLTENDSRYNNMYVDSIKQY
Description: TLR8 inhibition reporter assay (HEK-Blue SEAP). Conditions: HEK-Blue cells overexpressing human TLR8, R848 15.9 μM, 22 hour incubation. The method, then: as §1, §2

The target of another assay is T3, human TLR9 (Homo sapiens, UniProt Q9NR96).
T3 construct: host or cells: HEK-Blue cells (HEK293-derived reporter line)
T3 sequence (Q9NR96 26-1032): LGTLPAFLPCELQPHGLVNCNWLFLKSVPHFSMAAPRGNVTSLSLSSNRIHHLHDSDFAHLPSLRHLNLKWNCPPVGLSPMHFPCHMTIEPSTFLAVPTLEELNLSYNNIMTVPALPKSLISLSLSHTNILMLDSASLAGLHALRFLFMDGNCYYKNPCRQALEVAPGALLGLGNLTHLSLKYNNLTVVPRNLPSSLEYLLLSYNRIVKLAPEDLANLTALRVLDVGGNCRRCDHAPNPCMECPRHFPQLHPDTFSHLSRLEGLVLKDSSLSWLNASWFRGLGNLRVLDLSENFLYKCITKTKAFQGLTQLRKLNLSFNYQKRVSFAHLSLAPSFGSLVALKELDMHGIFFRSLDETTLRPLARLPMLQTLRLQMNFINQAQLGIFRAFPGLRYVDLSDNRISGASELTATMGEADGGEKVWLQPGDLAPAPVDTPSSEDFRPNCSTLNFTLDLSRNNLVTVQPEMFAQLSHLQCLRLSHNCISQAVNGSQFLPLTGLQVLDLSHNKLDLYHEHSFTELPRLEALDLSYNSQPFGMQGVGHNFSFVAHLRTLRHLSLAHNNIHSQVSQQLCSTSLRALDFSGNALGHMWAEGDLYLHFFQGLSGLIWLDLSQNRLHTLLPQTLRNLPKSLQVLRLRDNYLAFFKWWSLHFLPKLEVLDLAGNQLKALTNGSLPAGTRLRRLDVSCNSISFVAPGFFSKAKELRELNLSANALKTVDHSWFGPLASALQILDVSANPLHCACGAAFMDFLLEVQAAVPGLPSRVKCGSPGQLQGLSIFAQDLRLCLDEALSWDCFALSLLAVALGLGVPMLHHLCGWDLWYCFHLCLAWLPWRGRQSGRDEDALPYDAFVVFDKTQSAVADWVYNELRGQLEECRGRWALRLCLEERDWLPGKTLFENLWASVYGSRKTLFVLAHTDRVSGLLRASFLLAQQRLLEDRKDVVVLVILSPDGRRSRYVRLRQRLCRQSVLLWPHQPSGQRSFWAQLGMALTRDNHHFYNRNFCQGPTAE
As to the kind of experiment: TLR9 inhibition reporter assay (HEK-Blue SEAP). The note with it: HEK-Blue cells overexpressing human TLR9, ODN2006 5 nM, 22 hour incubation. The method, then:
as §1, §2

Broadly, the IC50 is the concentration at which inhibition is half-maximal. As to `COc1cc(-c2[nH]c3ccc(C4CCN(CCNC(=O)CCCCCCCCCCCCC(=O)NCCN5CCC(c6ccc7[nH]c(-c8cc(OC)c9ncnn9c8)c(C(C)C)c7c6)CC5)CC4)cc3c2C(C)C)cn2ncnc12` [Example 2, N1,N14-bis(2-(4-(3-isopropyl-2-(8-methoxy-[1,2,4]triazolo[1,5-a]pyridin-6-yl)-1H-indol-5-yl)piperidin-1-yl)ethyl)tetradecanediamide], the results for the IC50 against human TLR7, against human TLR8 and at human TLR9 were 1.9 nM, 1.6 nM and 149 nM, respectively.

Take `COc1cc(-c2[nH]c3ccc(C4CCN(C(=O)CCCCCCCCCCCCCCCCC(=O)N5CCC(c6ccc7[nH]c(-c8cc(OC)c9ncnn9c8)c(C(C)C)c7c6)CC5)CC4)cc3c2C(C)C)cn2ncnc12` [Comparator Compound C1, 1,18-bis(4-(3-isopropyl-2-(8-methoxy-[1,2,4]triazolo[1,5-a]pyridin-6-yl)-1H-indol-5-yl)piperidin-1-yl)octadecane-1,18-dione, reference compound]: the IC50 against human TLR7 was above 3130 nM; at human TLR8, at least 3130 nM; against human TLR9 it was above 50000 nM.

As for `COc1cc(-c2[nH]c3ccc(C4CCN(CCNC(=O)CCCCCCCCC(=O)NCCN5CCC(c6ccc7[nH]c(-c8cc(OC)c9ncnn9c8)c(C(C)C)c7c6)CC5)CC4)cc3c2C(C)C)cn2ncnc12` [Example 7, N1,N10-bis(2-(4-(3-isopropyl-2-(8-methoxy-[1,2,4]triazolo[1,5-a]pyridin-6-yl)-1H-indol-5-yl)piperidin-1-yl)ethyl)decanediamide], the IC50 on human TLR7 worked out at 0.14 nM; on human TLR8, 0.24 nM; against human TLR9 it was 98 nM.

Take `COc1cc(-c2[nH]c3ccc(C4CCN(CCN)CC4)cc3c2C(C)C)cn2ncnc12` [Comparator Compound C4, 2-(4-(3-isopropyl-2-(8-methoxy-[1,2,4]triazolo[1,5-a]pyridin-6-yl)-1H-indol-5-yl)piperidin-1-yl)ethan-1-amine, reference compound]: the IC50 against human TLR7 came out at 0.6 nM; against human TLR8, 2.1 nM; on human TLR9, 1970 nM.

On to `COc1cc(-c2[nH]c3ccc(C4CCN(CCNC(=O)CCCCCCCC(=O)NCCN5CCC(c6ccc7[nH]c(-c8cc(OC)c9ncnn9c8)c(C(C)C)c7c6)CC5)CC4)cc3c2C(C)C)cn2ncnc12` [Example 5, N1,N9-bis(2-(4-(3-isopropyl-2-(8-methoxy-[1,2,4]triazolo[1,5-a]pyridin-6-yl)-1H-indol-5-yl)piperidin-1-yl)ethyl)nonanediamide], for which the values for the IC50 against human TLR7, at human TLR8 and on human TLR9 were 0.15 nM, 0.18 nM and 140 nM, respectively.

As to `COc1cc(-c2[nH]c3ccc(C4CCN(CCNC(C)=O)CC4)cc3c2C(C)C)cn2ncnc12` [Comparator Compound C5, N-(2-(4-(3-isopropyl-2-(8-methoxy-[1,2,4]triazolo[1,5-a]pyridin-6-yl)-1H-indol-5-yl)piperidin-1-yl)ethyl)acetamide, reference compound], the results for the IC50 against human TLR7, against human TLR8 and on human TLR9 were 0.95 nM, 1.8 nM and 3570 nM, respectively.

As for `COc1cc(-c2[nH]c3ccc(C4CCN(CCNC(=O)CCCCCCCCCC(=O)NCCN5CCC(c6ccc7[nH]c(-c8cc(OC)c9ncnn9c8)c(C(C)C)c7c6)CC5)CC4)cc3c2C(C)C)cn2ncnc12` [Example 4, N1,N11-bis(2-(4-(3-isopropyl-2-(8-methoxy-[1,2,4]triazolo[1,5-a]pyridin-6-yl)-1H-indol-5-yl)piperidin-1-yl)ethyl)undecanediamide], the IC50 against human TLR7 amounted to 0.25 nM; against human TLR8, 0.22 nM; at human TLR9 it was 94 nM.

With `COc1cc(-c2[nH]c3ccc(C4CCN(CCNC(=O)CCCCCCCCCCCC(=O)NCCN5CCC(c6ccc7[nH]c(-c8cc(OC)c9ncnn9c8)c(C(C)C)c7c6)CC5)CC4)cc3c2C(C)C)cn2ncnc12` [Example 1, N1,N13-bis(2-(4-(3-isopropyl-2-(8-methoxy-[1,2,4]triazolo[1,5-a]pyridin-6-yl)-1H-indol-5-yl)piperidin-1-yl)ethyl)tridecanediamide], the IC50 against human TLR7 was 0.92 nM; against human TLR8 it was 1.4 nM; against human TLR9 it was 121 nM.
